Assay results taken from patent publication US12180187B2, “1-phenyl-5-azinylpyrazolyl-3-oxyalkyl acids and their use for controlling unwanted plant growth” (BAYER AKTIENGESELLSCHAFT, priority 2019, dated 2024).

Tests used:
VIOTR = assay: Pre-emergence action at 320 g/ha against VIOTR; assay type: in vivo, Viola tricolor; settings: dosage 320 g/ha
Excerpt: (§1) b) Seeds of monocotyledonous and dicotyledonous weed plants and crop plants are placed in plastic or organic planting pots and covered with soil. The compounds of the invention, formulated in the form of wettable powders (WP) or as emulsion concentrates (EC), are then applied onto the surface of the covering soil as aqueous suspension or emulsion with addition of 0.5% additive at a water application rate of 600 l/ha (converted). After the treatment, the pots are placed in a greenhouse and kept under good growth conditions for the trial plants. After about 3 weeks, the effect of the preparations is scored visually in comparison with untreated controls as percentages. For example, 100% activity=the plants have died, 0% activity=like control plants. Tables 13 to 26 below show the effects of selected compounds of the general formula (I) on various harmful plants and at an application rate corresponding to 320 g/ha, which were obtained by the experimental procedure mentioned above.

AMARE [1] = assay: Pre-emergence action at 320 g/ha against AMARE; assay type: in vivo, Amaranthus retroflexus; settings: visual scoring after about 3 weeks vs untreated controls
Excerpt: as §1

LOLRI [2] = assay: Pre-emergence action at 320 g/ha against LOLRI; assay type: in vivo, Lolium rigidum; settings: visual scoring after about 3 weeks vs untreated controls
Excerpt: as §1

SETVI [3] = assay: Pre-emergence action at 320 g/ha against SETVI; assay type: in vivo, Setaria viridis; settings: visual scoring after about 3 weeks vs untreated controls
Excerpt: as §1

ALOMY [4] = assay: Pre-emergence action at 320 g/ha against ALOMY; assay type: in vivo, Alopecurus myosuroides; settings: scored visually after about 3 weeks vs untreated controls (100% = plants have died)
Excerpt: as §1

MATIN [5] = assay: Pre-emergence action at 320 g/ha against MATIN; assay type: in vivo, Tripleurospermum inodorum (Matricaria inodora); settings: visual scoring after about 3 weeks vs untreated controls
Excerpt: as §1

DIGSA [6] = assay: Pre-emergence action at 320 g/ha against DIGSA; assay type: in vivo, Digitaria sanguinalis; settings: visual scoring after about 3 weeks vs untreated controls
Excerpt: as §1

LOLRI [7] = assay: Pre-emergence action against LOLRI, 1280 g/ha; assay type: in vivo, Lolium rigidum; settings: visual scoring after about 3 weeks vs untreated controls, 100% = plants have died, 0% = like control plants
Excerpt: (§2) 1. Pre-Emergence Herbicidal Effect and Crop Plant Compatibility a) Seeds of mono- and dicotyledonous weed plants are placed in plastic pots in sandy loam soil (doubly sown with one species each of mono- or dicotyledonous weed plants per pot) and covered with soil. The compounds of the invention, formulated in the form of wettable powders (WP) or as emulsion concentrates (EC), are then applied onto the surface of the covering soil as aqueous suspension or emulsion with addition of 0.5% additive at a water application rate equivalent to 600 litres per hectare. After the treatment, the pots are placed in a greenhouse and kept under good growth conditions for the trial plants. After about 3 weeks, the effect of the preparations is scored visually in comparison with untreated controls as percentages. For example, 100% activity=the plants have died, 0% activity=like control plants. 1. Pre-Emergence Effectiveness Tables 1 to 12 below show the effects of selected compounds of the general formula (I) according to Tables 1 and 2 on various harmful plants and at an application rate corresponding to 1280 g/ha, which were obtained by the experimental procedure mentioned above.

DIGSA [8] = assay: Pre-emergence action against DIGSA, 1280 g/ha; assay type: in vivo, Digitaria sanguinalis; settings: visual scoring after about 3 weeks vs untreated controls, 100% = plants have died, 0% = like control plants
Excerpt: as §2

SETVI [9] = assay: Post-emergence action against SETVI, 1.28 kg/ha; assay type: in vivo, Setaria viridis; settings: dosage 1280 g/ha, visual rating about 3 weeks after treatment vs untreated controls
Experimental: (§3) • a) Seeds of mono- and dicotyledonous weed plants are placed in plastic pots in sandy loam soil (twin sowing with one species each of mono- or dicotyledonous weed plants per pot), covered with soil and cultivated in a greenhouse under controlled growth conditions. 2 to 3 weeks after sowing, the test plants are treated at the one-leaf stage. The compounds of the invention, formulated in the form of wettable powders (WP) or as emulsion concentrates (EC), are applied to the green parts of the plants as aqueous suspension or emulsion with addition of 0.5% additive at a water application rate equivalent to 600 litres per hectare. After the test plants have been kept in the greenhouse under optimum growth conditions for about 3 weeks, the activity of the preparations is rated visually in comparison to untreated controls. For example, 100% activity=the plants have died, 0% activity=like control plants. As shown by the results, compounds of the general formula (I) of the invention, in post-emergence treatment, have very good herbicidal efficacy (90% to 100% herbicidal action) against harmful plants such as Abutilon theophrasti, Digitaria sanguinalis, Echinochloa crus-galli, Matricaria inodora, Poa annua, at an application rate of 1.28 kg of active substance per hectare.

POAAN [10] = assay: Pre-emergence action against POAAN, 1280 g/ha; assay type: in vivo, Poa annua; settings: visual scoring after about 3 weeks vs untreated controls, 100% = plants have died, 0% = like control plants
Excerpt: as §2

VERPE [11] = assay: Post-emergence action against VERPE, 1.28 kg/ha; assay type: in vivo, Veronica persica; settings: dosage 1280 g/ha, visual rating about 3 weeks after treatment vs untreated controls (100% = plants died)
Experimental: as §3

MATIN [12] = assay: Post-emergence action against MATIN, 1.28 kg/ha; assay type: in vivo, Tripleurospermum inodorum (Matricaria inodora); settings: dosage 1280 g/ha, visual rating about 3 weeks after treatment vs untreated controls (100% = plants died)
Experimental: as §3

AMARE [13] = assay: Pre-emergence action against AMARE, 1280 g/ha; assay type: in vivo, Amaranthus retroflexus; settings: scored visually after about 3 weeks vs untreated controls (100% = plants have died)
Excerpt: as §2

ALOMY [14] = assay: Post-emergence action against ALOMY, 1.28 kg/ha; assay type: in vivo, Alopecurus myosuroides; settings: dosage 1280 g/ha, visual rating about 3 weeks after treatment vs untreated controls
Experimental: as §3

ABUTH = assay: Post-emergence action against ABUTH, 1.28 kg/ha; assay type: in vivo, Abutilon theophrasti; settings: dosage 1280 g/ha, visual rating about 3 weeks after treatment vs untreated controls (100% = plants died)
Experimental: as §3

VERPE [15] = assay: Pre-emergence action against VERPE, 1280 g/ha; assay type: in vivo, Veronica persica; settings: scored visually after about 3 weeks vs untreated controls (100% = plants have died)
Excerpt: as §2

ECHCG [16] = assay: Post-emergence action against ECHCG, 1.28 kg/ha; assay type: in vivo, Echinochloa crus-galli; settings: dosage 1280 g/ha, visual rating about 3 weeks after treatment vs untreated controls
Experimental: as §3

DIGSA [17] = assay: Post-emergence action against DIGSA, 1.28 kg/ha; assay type: in vivo, Digitaria sanguinalis; settings: dosage 1280 g/ha, visual rating about 3 weeks after treatment vs untreated controls
Experimental: as §3

POAAN [18] = assay: Post-emergence action against POAAN, 1.28 kg/ha; assay type: in vivo, Poa annua; settings: dosage 1280 g/ha, visual rating about 3 weeks after treatment vs untreated controls
Experimental: as §3

MATIN [19] = assay: Pre-emergence action against MATIN, 1280 g/ha; assay type: in vivo, Tripleurospermum inodorum (Matricaria inodora); settings: scored visually after about 3 weeks vs untreated controls (100% = plants have died)
Excerpt: as §2

SETVI [20] = assay: Pre-emergence action against SETVI, 1280 g/ha; assay type: in vivo, Setaria viridis; settings: visual scoring after about 3 weeks vs untreated controls, 100% = plants have died, 0% = like control plants
Excerpt: as §2

STEME [21] = assay: Pre-emergence action against STEME, 1280 g/ha; assay type: in vivo, Stellaria media; settings: scored visually after about 3 weeks vs untreated controls (100% = plants have died)
Excerpt: as §2

AMARE [22] = assay: Post-emergence action against AMARE, 1.28 kg/ha; assay type: in vivo, Amaranthus retroflexus; settings: dosage 1280 g/ha, visual rating about 3 weeks after treatment vs untreated controls (100% = plants died)
Experimental: as §3

STEME [23] = assay: Post-emergence action against STEME, 1.28 kg/ha; assay type: in vivo, Stellaria media; settings: dosage 1280 g/ha, visual rating about 3 weeks after treatment vs untreated controls (100% = plants died)
Experimental: as §3

ECHCG [24] = assay: Pre-emergence action against ECHCG, 1280 g/ha; assay type: in vivo, Echinochloa crus-galli; settings: visual scoring after about 3 weeks vs untreated controls, 100% = plants have died, 0% = like control plants
Excerpt: as §2

SMILES | Pre-emergence action against VIOTR in % (VIOTR) [%] | Pre-emergence action against AMARE in % (AMARE [1]) [%] | Pre-emergence action against SETVI in % (SETVI [3]) [%] | Pre-emergence action at 320 g/ha against ALOMY in % (ALOMY [4]) [%] | Pre-emergence action against LOLRI (LOLRI [7]) [%] | Pre-emergence action against DIGSA (DIGSA [8]) [%] | Post-emergence action against SETVI (SETVI [9]) [%] | Pre-emergence action against POAAN (POAAN [10]) [%] | Post-emergence action against VERPE (VERPE [11]) [%] | Post-emergence action against MATIN (MATIN [12]) [%] | Pre-emergence action against AMARE (AMARE [13]) [%] | Post-emergence action against ALOMY (ALOMY [14]) [%] | Post-emergence action against ABUTH (ABUTH) [%] | Pre-emergence action against VERPE (VERPE [15]) [%] | Post-emergence action against ECHCG (ECHCG [16]) [%] | Post-emergence action against DIGSA (DIGSA [17]) [%] | Post-emergence action against POAAN (POAAN [18]) [%] | Pre-emergence action against MATIN (MATIN [19]) [%] | Pre-emergence action against SETVI (SETVI [20]) [%] | Pre-emergence action against STEME (STEME [21]) [%] | also measured
COC(=O)CNC(=O)C(F)Oc1nn(-c2ccccc2F)c(-c2ccc(F)nc2)c1Br (centres unmarked) [Example X-014] | 100 | 100 | 90 | 90 |  |  |  |  |  |  |  |  |  |  |  |  |  |  |  |  | Pre-emergence action against LOLRI in % (LOLRI [2]): 90%; Pre-emergence action against MATIN in % (MATIN [5]): 90%
COC(=O)CN(C)C(=O)COc1nn(-c2ccccc2F)c(-c2ccc(F)nc2)c1Br [Example X-030] | 90 | 90 | 80 | 90 |  |  |  |  |  |  |  |  |  |  |  |  |  |  |  |  | Pre-emergence action against DIGSA in % (DIGSA [6]): 100%
O=C(O)C1CCN(C(=O)COc2nn(-c3ccccc3F)c(-c3cncc(F)c3)c2Br)CC1 [Example X-038] |  |  |  |  | 90 | 90 | 90 | 100 | 100 | 100 | 100 | 90 | 90 | 90 | 90 | 90 | 100 | 90 | 100 | 90 | 
CCOC(=O)COc1nn(-c2cc(F)c(F)cc2F)c(-c2ccc(F)nc2)c1Cl [VII-009] |  |  |  |  | 100 |  | 90 | 100 | 90 | 100 | 100 |  | 90 | 90 | 100 |  | 100 | 100 | 100 | 100 | Post-emergence action against AMARE (AMARE [22]): 100%; Post-emergence action against STEME (STEME [23]): 100%; Pre-emergence action against ECHCG (ECHCG [24]): 90%
CCOC(=O)COc1nn(-c2ccc(F)cc2F)c(-c2ccc(F)nc2)c1F [VII-027] |  |  |  |  | 100 | 90 | 90 | 90 | 90 |  | 90 | 100 |  |  |  | 100 |  | 90 | 90 | 100 | Post-emergence action against AMARE (AMARE [22]): 90%; Pre-emergence action against ECHCG (ECHCG [24]): 90%
